# Data from article PMC4635624, “In vitro and in vivo single-agent efficacy of checkpoint kinase inhibition in acute lymphoblastic leukemia” (Journal of Hematology & Oncology, 2015).
# Several values for one entry are separate records, joined by “and”; a condition that tells them apart may be missing. Equal values may be shown once. Read-outs that look alike come from different tables or passages of the source.
# How the values were obtained:
# [1] = tested on: B- and T-ALL cell lines; assay: Annexin V/PI staining of apoptotic cells; assay type: cell-based, human; details: 0.1, 0.5, 1 μM (0.05, 0.1, 0.2 μM for BV-173 and RPMI-8402), 24 and 48 h; proportional to dose and exposure time
# Description: In order to assess whether cytotoxicity was correlated to increased susceptibility to apoptosis, B-/T-ALL cell lines were incubated with increasing concentrations of drug (0.1, 0.5, and 1 μM and 0.05, 0.1, and 0.2 μM only for BV-173 and RPMI-8402, respectively) for 24 and 48 h. […] The induction of apoptosis by PF-00477736 was also assessed by the detection of poly (ADP-ribose) polymerase (PARP) cleavage by Western blot analysis.
# According to the WST-1 results, three different increasing concentrations of PF-00477736 were used to treat leukemia cells lines in order to detect and discriminate apoptotic, necrotic and dead cells. Cell lines were seeded in 12-well plates at 500,000 cell/1 ml with increasing concentrations of drug (0.1, 0.5 and 1 μM and 0.05, 0.1 and 0.2 μM only for BV-173 and RPMI-8402) for 24 and 48 h and incubated at 37 °C. Following the treatment, cells were harvested and stained with Annexin V/PI according to the manufacturer’s instruction (Roche). The percentage of Annexin V-PI-positive cells was determined within 1 × 10^4 cells of the population by flow cytometry (FACSCanto II, BD Biosciences Pharmingen, San Jose, CA, USA). The mean percentage of Annexin V-PI-positive cells and standard error measurement was calculated from at least two separate experiments.
# [2] = tested on: primary ALL blast cells; assay: Ex-vivo viability of primary leukemia cells (trypan blue dye exclusion); assay type: cell-based, human
# Description: The efficacy of PF-00477736 was confirmed in primary blast cells from 14 newly diagnosed cases including ten BCR-ABL1-positive (71 %) cases and four BCR-ABL1-negative ALL cases (29 %). Leukemic cells were incubated with increasing concentrations of drug (0.1, 0.5, and 1 μM) for 24 h. […]
# In order to assess the cell viability after treatment with PF-00477736 (Pfizer), ALL cell lines were seeded in 96-well plates at 50,000 cell/100 μl/well with increasing concentrations of drug (0.005–2 μM) for 24 and 48 h and incubated at 37 °C. Cell viability was assessed by adding WST-1 reagent (Roche Applied Science, Basel, Switzerland) to the culture medium at 1:10 dilution. Cells were incubated at 37 °C, and the optical density was measured by microplate ELISA reader at λ = 450 after 3 h. […] In ex-vivo primary leukemia cells, the effects on cell viability were assessed by counting viable and non-viable cell numbers by the trypan blue dye exclusion method. […] Cellular viability was calculated as a percentage of the viable cells compared to the untreated controls (DMSO 0.1 %).
smiles,measurement,setting,value
Cn1cc(-c2[nH]c3cc(NC(=O)[C@H](N)C4CCCCC4)cc4c3c2C=NNC4=O)cn1 [PF-00477736],apoptosis (Annexin V/PI-positive cells),[1],significant increase of apoptosis
same,IC50,"[2]; primary ALL sample of one patient per table row (ID in c1), class of IC50 at 24 hours, read-out: Sensitivity",0.5 to 1 µM and 0.1 to 0.5 µM
same,IC50,"[2]; primary blast cells, 21 % (3/14) of cases, 24 h, read-out: IC50 at 24 h, poor responders",> 1 µM
